Experimental data as given in US10500274B2, “Methods for reducing viral load in HIV-1 infected patients” (CytoDyn Inc., priority 2008, dated 2019).
Read-outs that look alike come from different tables or passages of the source.

Assays:
[1] = tested on: HIV-1JR-FL envelope-mediated membrane fusion; experiment: microbe, parasite or virus in culture; format: cell-based; set-up: CI90: unit not given beside the values
[2] = tested on: reporter viruses pseudotyped with HIV-1JR-FL envelope (U87-CD4-CCR5 cells); experiment: microbe, parasite or virus in culture; format: cell-based; details: for IC50 / IC90: Human immunodeficiency virus 1, U87/CD4/CCR5
[3] = tested on: reporter viruses pseudotyped with HIV-1SF162 envelope (U87-CD4-CCR5 cells); experiment: HIV-1 pseudovirus assay, SF162 envelope; format: cell-based; details: Human immunodeficiency virus 1, U87/CD4/CCR5
Excerpt: A self-inactivating (SIN) vector was derived from the pNL4-3ΔEnv-luciferase vector (Dragic et al. 1996) by deleting 507 basepairs in the U3 region of the 3′ long terminal repeat (LTR) so as to remove the TATA box and transcription factor binding sites. The human cytomegalovirus promoter was inserted upstream of the luciferase (luc) gene to enable expression of luciferase following integration.
Reporter viruses pseudotyped with HIV-1JR-FL or HIV-15F162 envelopes were generated by cotransfection of 293T cells with the SIN vector and the appropriate pcDNA env-expressing vector as previously described (Dragic et al. 1996). U87-CD4-CCR5 cells (8,000/well; NIH AIDS Research and Reference Reagent Program) were infected with 125-375 pg of HIV-L pseudoviruses in 384-well plates in the presence or absence of inhibitor(s). Cultures were incubated for 72 h at 37° C. in DMEM containing 10% fetal bovine serum, […], 0.3 mg/mL geneticin, antibiotics, and 0.5% DMSO. Luciferase activity (relative light units or RLU) was measured using BrightGlo reagent (Promega, Madison, Wis.) according to the manufacturer's instructions.
Experimental design and data analysis were based on the combination index (CI) method (Chou et al. 1991; Chou et al. 1984). […] The mutually exclusive CI formula was used for combinations of CCR5 inhibitors, while the mutually non-exclusive formula was utilized for combinations of inhibitors to distinct targets (Chou et al. 1991). Each test was conducted 4-12 times. Synergy, additivity and antagonism are indicated by CI<1, CI=1 and CI>1, respectively.
In the Bonferroni correction, P=α/n, where n is the number of comparisons. Twenty-two synergy comparisons (11 compounds×2 CI values) were made based on data generated in the membrane fusion assay, resulting in a corrected P value of 0.0023.

HIV-1 = details: dose-dependent, treatment period of 10-14 days; cited from earlier work
CCR5 = CCR5 (Homo sapiens, UniProt P51681); details: cited from earlier work
[4] = tested on: HIV-1 Env-mediated fusion (HeLa-EnvJRFL with CEM NKR-CCR5 cells); experiment: HIV-1 RET cell-cell fusion assay, combination testing (Part II); details: PRO 140 in combination with the labelled inhibitor, 1:1 molar ratio
Description: Serial dilutions of small molecules were conducted in DMSO. Subsequent dilutions were conducted in medium to achieve a final DMSO concentration in the assay of 0.5%. Peptides and mAbs were diluted in PBS in the absence of DMSO.
Briefly, fluorescein octadecyl ester (F18; Molecular Probes, Eugene, Oreg.; 5 mg/ml in ethanol), was diluted 1:800 in DMEM labeling medium (DMEM; Invitrogen, Carlsbad, Calif.) with 10% fetal bovine serum (FBS; HyClone, Logan, Utah) and adjusted to an A506 of 0.34±10%. […] Both dyes were further diluted 2-fold by addition to cells in T75-cm^2 flasks. HeLa-EnvJRFL and CEM NKR-CCR5 cells were incubated overnight in F18- and R18-containing culture medium, respectively. […] The plates were then read on a fluorescence plate reader (Victor^2, Perkin Elmer, Boston, Mass.) using the excitation/emission filter combinations shown in Table 6a. […]
IC50 values were generated for all combinations as described above. Combination Index (CI) and Dose Reduction (DR) values were calculated according to the following formulas:
Combinations with CI<1 are determined to be synergistic, whereas combinations with CI>1 are determined to be antagonistic. […]
In this assay, effector cells are labeled with the F18 dye and target cells with the R18 dye. […] Drug susceptibility is measured by adding serial concentrations of drugs to target cells prior to addition of effector cells. […]

[5] = Human immunodeficiency virus 1, 1st inhibitor alone

CCR5, sequence (P51681 whole entry, the tested form may be a part): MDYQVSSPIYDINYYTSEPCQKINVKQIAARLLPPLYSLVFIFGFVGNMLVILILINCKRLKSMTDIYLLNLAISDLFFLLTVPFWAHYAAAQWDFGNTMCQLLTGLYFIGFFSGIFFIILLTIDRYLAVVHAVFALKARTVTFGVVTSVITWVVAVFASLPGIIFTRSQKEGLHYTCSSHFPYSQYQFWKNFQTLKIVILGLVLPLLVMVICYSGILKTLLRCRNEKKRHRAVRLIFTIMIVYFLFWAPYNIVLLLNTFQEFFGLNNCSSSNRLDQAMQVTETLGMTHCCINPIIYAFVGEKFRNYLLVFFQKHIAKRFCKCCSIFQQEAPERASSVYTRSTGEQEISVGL

COc1ccnc2[nH]cc(C(=O)C(=O)N3CCN(C(=O)c4ccccc4)C[C@H]3C)c12 [BMS-378806, (R)—N-(benzoyl)-3-methyl-N′-[(4-methoxy-7-azaindol-3-yl)-oxoacetyl]-piperazine]
IC50 [1, 5]: 5.2 nM | IC90 [1, 5]: 20 nM | IC50 [2]: 1.2 nM | IC90 [2]: 11 nM | IC50 [3]: 0.03 nM | IC90 [3]: 0.42 nM

CCCCN1C(=O)[C@@H]([C@H](O)C2CCCCC2)NC(=O)C12CCN(Cc1ccc(Oc3ccc(C(=O)O)cc3)cc1)CC2 [GW873140]
mean reduction in HIV-1 RNA levels (HIV-1): ~1 log10

CCO/N=C(\c1ccc(Br)cc1)C1CCN(C2(C)CCN(C(=O)c3c(C)cc[n+]([O-])c3C)CC2)CC1 [SCH-C]
mean reduction in HIV-1 RNA levels (HIV-1): ~1 log10

COC[C@@H](c1ccc(C(F)(F)F)cc1)N1CCN(C2(C)CCN(C(=O)c3c(C)ncnc3C)CC2)C[C@@H]1C [SCH-D, 1-[(4,6-dimethyl-5-pyrimidinyl)carbonyl]-4-[4-[2-methoxy-1(R)-4-(trifluoromethyl)phenyl]ethyl-3(S)-methyl-1-piperazinyl]-4-methylpiperidine]
CI90 ([1]; SCH-D with UK-427,857 1:1, experiment depicted in FIG. 15B): 0.73 | IC90 ([1]; SCH-D with UK-427,857, 1:1 fixed molar ratio, FIG. 15B, read-out: IC90 of the combination): 31 nM | mean reduction in HIV-1 RNA levels (HIV-1): ~1 log10

CCCCOCCOc1ccc(-c2ccc3c(c2)/C=C(/C(=O)Nc2ccc([S+]([O-])Cc4cncn4CCC)cc2)CCCN3CC(C)C)cc1 (stereo not drawn) [TAK-652]
anti-HIV-1 activity in vitro (CCR5; Baba et al., 2005): nanomolar range | oral bioavailability (CCR5; Baba et al., 2005): orally bioavailable | tolerability (CCR5; TAK-779: Iizawa et al., 2003, TAK-652: single oral dose, healthy male volunteers): safe and well tolerated

Cc1nnc(C(C)C)n1C1CC2CCC(C1)N2CC[C@H](NC(=O)C1CCC(F)(F)CC1)c1ccccc1 (stereo partly drawn) [UK-427,857]
IC50 [1, 5]: 5.3 nM | IC90 [1, 5]: 27 nM | IC90 ([1]; Human immunodeficiency virus 1, inhibitor alone, experiment depicted in FIG. 15A): 21 nM | IC90 ([1]; Human immunodeficiency virus 1, inhibitor alone, experiment depicted in FIG. 15B): 59 nM | IC50 ([1]; Human immunodeficiency virus 1, read-out: IC50 of the combination, UK-427,857 with PRO 140, 1:1 fixed molar ratio, total concentration, FIG. 15A): 2.1 nM | IC90 ([1]; Human immunodeficiency virus 1, read-out: IC90 of the combination, UK-427,857 with PRO 140, 1:1 fixed molar ratio, FIG. 15A): 4.6 nM | CI90 ([1]; UK-427,857 with PRO 140 1:1, experiment depicted in FIG. 15A): 0.32

Cc1ccnc2c1NC(=O)c1cccnc1N2C1CC1 [nevirapine]
IC50 [2]: 30 nM | IC90 [2]: 310 nM | IC50 [3]: 42 nM | IC90 [3]: 280 nM

Cc1cn([C@H]2C[C@H](N=[N+]=[N-])[C@@H](CO)O2)c(=O)[nH]c1=O [zidovudine]
IC50 [2]: 140 nM | IC90 [2]: 1900 nM | IC50 [3]: 86 nM | IC90 [3]: 2100 nM

RANTES: CC-chemokine, natural peptide ligand of CCR5, purchased from R&D Systems
CI values (50% and 90% inhibition) ([1]; in combination with PRO 140): Similarly potent synergy | CI50 ([1]; labelled 1st inhibitor with 2nd inhibitor UK-427,857, equimolar): Similarly potent synergy | inhibition of HIV-1 pseudovirus entry (in words) ([2]; inhibitor alone): Neither TAK-779 nor RANTES mediated consistent, high-level inhibition | Mean CT (Combination Index at IC50 value) [4]: 0.59 ± 0.08
